Test system: 415267-285-R-J2-PDC complex spheroid viability
Experiment: Anticancer human tumor 415267-285-R-J2-PDC patient-derived breast carcinoma cell line growth inhibition [POLQ]
Conditions: for IC50: curve of first compound; for viability, T/C: stronger effect = lower value
Procedure, shortened: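 Three-cell-type spheroids modelling solid tumor plus stroma served as the readout system; POL inhibitors were tested individually and in combination, concentration ranges set by clinical Cmax where known.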

[1] = second compound 0.0316 µM, first compound 0.0316 µM
[2] = second compound 0.0316 µM, first compound 0.1 µM
[3] = second compound 0.0316 µM, first compound 0.316 µM
[4] = second compound 0.0316 µM, first compound 1 µM
[5] = second compound 0.0316 µM, first compound 3.16 µM
[6] = second compound 0.0316 µM, first compound 10 µM
[7] = second compound 0.1 µM, first compound 0.0316 µM
[8] = second compound 0.1 µM, first compound 0.1 µM
[9] = second compound 0.1 µM, first compound 0.316 µM
[10] = second compound 0.1 µM, first compound 1 µM
[11] = second compound 0.1 µM, first compound 3.16 µM
[12] = second compound 0.1 µM, first compound 10 µM
[13] = second compound 0.316 µM, first compound 0.0316 µM
[14] = second compound 0.316 µM, first compound 0.1 µM
[15] = second compound 0.316 µM, first compound 0.316 µM
[16] = second compound 0.316 µM, first compound 1 µM
[17] = second compound 0.316 µM, first compound 3.16 µM
[18] = second compound 0.316 µM, first compound 10 µM
[19] = second compound 1 µM, first compound 0.0316 µM
[20] = second compound 1 µM, first compound 0.1 µM
[21] = second compound 1 µM, first compound 0.316 µM
[22] = second compound 1 µM, first compound 1 µM
[23] = second compound 1 µM, first compound 3.16 µM
[24] = second compound 1 µM, first compound 10 µM
[25] = second compound 3.16 µM, first compound 0.0316 µM
[26] = second compound 3.16 µM, first compound 0.1 µM
[27] = second compound 3.16 µM, first compound 0.316 µM
[28] = second compound 3.16 µM, first compound 1 µM
[29] = second compound 3.16 µM, first compound 3.16 µM
[30] = second compound 3.16 µM, first compound 10 µM
[31] = second compound 10 µM, first compound 0.0316 µM
[32] = second compound 10 µM, first compound 0.1 µM
[33] = second compound 10 µM, first compound 0.316 µM
[34] = second compound 10 µM, first compound 1 µM
[35] = second compound 10 µM, first compound 3.16 µM
[36] = second compound 10 µM, first compound 10 µM
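Further: spheroids exposed to compounds for one week before readout.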
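Wherever viability, T/C is given: luminescence used as stand-in measure of viable cells; 100% = DMSO vehicle control viability.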

CNCc1ccc(-c2[nH]c3cc(F)cc4c3c2CCNC4=O)cc1 + Nc1ccc(C#CCN(C(=O)Cc2ncc(C(F)(F)F)cc2C(F)(F)F)c2ccc(F)cc2)nn1
IC50 (second compound 0.0316 µM): > 10 µM
IC50 (second compound 0.1 µM): > 10 µM
IC50 (second compound 0.316 µM): > 10 µM
IC50 (second compound 1 µM): > 10 µM
IC50 (second compound 3.16 µM): > 10 µM
IC50 (second compound 10 µM): > 10 µM
viability, T/C [1]: 98.9%
viability, T/C [2]: 107%
viability, T/C [3]: 91.1%
viability, T/C [4]: 84.6%
viability, T/C [5]: 91.9%
viability, T/C [6]: 103%
viability, T/C [7]: 89.7%
viability, T/C [8]: 105%
viability, T/C [9]: 93.2%
viability, T/C [10]: 87.9%
viability, T/C [11]: 101%
viability, T/C [12]: 102%
viability, T/C [13]: 98.9%
viability, T/C [14]: 93.2%
viability, T/C [15]: 91.4%
viability, T/C [16]: 106%
viability, T/C [17]: 94.4%
viability, T/C [18]: 108%
viability, T/C [19]: 97.3%
viability, T/C [20]: 98.7%
viability, T/C [21]: 92.9%
viability, T/C [22]: 98.6%
viability, T/C [23]: 106%
viability, T/C [24]: 118%
viability, T/C [25]: 91.1%
viability, T/C [26]: 100%
viability, T/C [27]: 94%
viability, T/C [28]: 96.5%
viability, T/C [29]: 109%
viability, T/C [30]: 107%
viability, T/C [31]: 101%
viability, T/C [32]: 97.6%
viability, T/C [33]: 105%
viability, T/C [34]: 105%
viability, T/C [35]: 113%
viability, T/C [36]: 110%

C=CC(=O)N1CCN(c2nc(=O)n(-c3c(C)ccnc3C(C)C)c3nc(-c4c(O)cccc4F)c(F)cc23)C(C)C1 (stereo unspecified) + Nc1ccc(C#CCN(C(=O)Cc2ncc(C(F)(F)F)cc2C(F)(F)F)c2ccc(F)cc2)nn1
IC50 (second compound 0.0316 µM): > 10 µM
IC50 (second compound 0.1 µM): > 10 µM
IC50 (second compound 0.316 µM): > 10 µM
IC50 (second compound 1 µM): > 10 µM
IC50 (second compound 3.16 µM): > 10 µM
IC50 (second compound 10 µM): > 10 µM
viability, T/C [1]: 99.7%
viability, T/C [2]: 110%
viability, T/C [3]: 121%
viability, T/C [4]: 114%
viability, T/C [5]: 104%
viability, T/C [6]: 99.6%
viability, T/C [7]: 98.5%
viability, T/C [8]: 103%
viability, T/C [9]: 94.7%
viability, T/C [10]: 100%
viability, T/C [11]: 103%
viability, T/C [12]: 105%
viability, T/C [13]: 97.5%
viability, T/C [14]: 114%
viability, T/C [15]: 91.8%
viability, T/C [16]: 93%
viability, T/C [17]: 98.2%
viability, T/C [18]: 92.5%
viability, T/C [19]: 111%
viability, T/C [20]: 91.7%
viability, T/C [21]: 113%
viability, T/C [22]: 106%
viability, T/C [23]: 96%
viability, T/C [24]: 105%
viability, T/C [25]: 99.1%
viability, T/C [26]: 106%
viability, T/C [27]: 107%
viability, T/C [28]: 102%
viability, T/C [29]: 99.1%
viability, T/C [30]: 104%
viability, T/C [31]: 94.5%
viability, T/C [32]: 112%
viability, T/C [33]: 106%
viability, T/C [34]: 107%
viability, T/C [35]: 104%
viability, T/C [36]: 102%

C#Cc1c(F)ccc2cc(O)cc(-c3ncc4c(N5CC6CCC(C5)N6)nc(OCC56CCCN5CC(F)C6)nc4c3F)c12 (stereo unspecified) + Cc1cccc(N(C)C(=O)C2C(O)CCN2c2nc(C)cc(C(F)(F)F)c2C#N)c1
IC50 (second compound 0.0316 µM): > 10 µM
IC50 (second compound 0.1 µM): > 10 µM
IC50 (second compound 0.316 µM): > 10 µM
IC50 (second compound 1 µM): > 10 µM
IC50 (second compound 3.16 µM): > 10 µM
IC50 (second compound 10 µM): > 10 µM
viability, T/C [1]: 96.9%
viability, T/C [2]: 95.5%
viability, T/C [3]: 104%
viability, T/C [4]: 104%
viability, T/C [5]: 111%
viability, T/C [6]: 101%
viability, T/C [7]: 91.2%
viability, T/C [8]: 99.8%
viability, T/C [9]: 91%
viability, T/C [10]: 99.8%
viability, T/C [11]: 104%
viability, T/C [12]: 102%
viability, T/C [13]: 112%
viability, T/C [14]: 102%
viability, T/C [15]: 100%
viability, T/C [16]: 115%
viability, T/C [17]: 113%
viability, T/C [18]: 104%
viability, T/C [19]: 101%
viability, T/C [20]: 106%
viability, T/C [21]: 92.9%
viability, T/C [22]: 117%
viability, T/C [23]: 106%
viability, T/C [24]: 109%
viability, T/C [25]: 113%
viability, T/C [26]: 98.8%
viability, T/C [27]: 104%
viability, T/C [28]: 115%
viability, T/C [29]: 91.3%
viability, T/C [30]: 98.7%
viability, T/C [31]: 105%
viability, T/C [32]: 95.4%
viability, T/C [33]: 95.6%
viability, T/C [34]: 98%
viability, T/C [35]: 101%
viability, T/C [36]: 98.4%

Reference: PubChem BioAssay AID1963847 (Molecular Pharmacology Branch, DTP, NCI, 2024)
